Tested on: C. auris
Assay: Screening of antifungal activity at 256 µg/mL against C. auris
Type: cell-based, Candida auris
Conditions: screening at 256 µg/mL, clinical isolates of C. auris
Text: The fungal strains used in this study were C. albicans ATCC 10231, C. albicans ATCC 64550, C. parapsilosis ATCC 22019, C. tropicalis ATCC 750, C. tropicalis ATCC 200956 (resistant to azoles and AMB), C. glabrata LMDM 34 (resistant to echinocandins), C. metapsilosis MUM 15.12, C. orthopsilosis MUM 17.13, C. lusitaniae MUM 17.08, C. krusei ATCC 6258 (Issatchenkia orientalis ATCC 6258), and C. auris CDC B11903. Additionally, nine clinical isolates were included: C. parapsilosis Synlab 406 (FLC-resistant) and eight C. auris isolates identified by MALDI-TOF MS (Bruker Daltonics, Bremen, Germany) according to Zhao et al.. These yeasts were cultured on Sabouraud Dextrose Agar (SDA; Sigma-Aldrich, St. Louis, MO, USA) for 24 h at 35 °C.
Antifungal susceptibility testing was performed according to Clinical and Laboratory Standards Institute M27, 4th Edition (CLSI standard M27, 4th Edition). Some modifications were applied for evaluation of the antifungal activity of EOs and terpenes. Initially, a screening was carried out to determine the antifungal activity of the EOs and of commercial terpenes. Stock concentrations of EOs and terpenes were prepared at 512 µg/mL and an inoculum of 2.5 × 10^3 CFU/mL of each yeast was prepared in RPMI 1640-MOPS (Sigma- Aldrich St. Louis, MO, USA). Thereafter, 100 µL of each stock solution of EOs or terpenes was dispensed in 96-well microdilution plates (Corning®, Costar®, NY, USA) and 100 µL of each yeast inoculum was added. […] MICs were visually determined at the lowest concentration that produced visual inhibition compared to the growth control. […] The results were expressed as geometric means (GM) and ranges. As an antifungal susceptibility testing control, the activity of ITC and AMB against the reference strains C. krusei ATCC 6258 and C. parapsilosis ATCC 22019 was evaluated in all experiments following the CLSI standard M27, 4th Edition. […]

SMILES | antifungal activity in screening against C. auris
C=C(C)C1CC=C(C)C(O)C1 (mixture of isomers) [carveol] | active against only some of the clinical isolates of C. auris
C=C1CC/C=C(\C)CC[C@@H]2[C@@H]1CC2(C)C (relative stereo) [trans-β-caryophyllene] | active against only some of the clinical isolates of C. auris

Reference: article PMC9606955, “In Vitro Activity of Essential Oils Distilled from Colombian Plants against Candida auris and Other Candida Species with Different Antifungal Susceptibility Profiles” (Molecules, 2022)
